Patent US9982242B2, “Protein complex capable of catalyzing asymmetric oxidation reaction and method for producing same” (SANYO FOODS CO., LTD., priority 2012, dated 2018)

System: CLPC
Settings: for effect of additive on CLPC activity: 1 mM; for OP/% ee of (S)-2 with additive: additive 1.0 mM, CLPC 20 mg, rac-2 0.8 mM, 48 h

| SMILES | effect of additive on CLPC activity | OP/% ee of (S)-2 with additive [% ee] |
| --- | --- | --- |
| [Cl-].[Cl-].[Zn+2] [ZnCl2] | inhibitory activity was observed | 1.7 |
| O=S(=O)([O-])[O-].[Mg+2] [MgSO4] |  | 91.2 |
| O=C(O)CN(CCN(CC(=O)O)CC(=O)O)CC(=O)O [EDTA] | activity was completely lost |  |
| O=S(=O)([O-])[O-].[Cu+2] [CuSO4] |  | 86.2 |
| [Ca+2].[Cl-].[Cl-] [CaCl2] |  | 97.7 |
| [Cl][Fe]([Cl])[Cl] [FeCl3] |  | 79.6 |
| c1cnc2c(c1)ccc1cccnc12 [o-phenanthroline] |  | 1.4 |
| [Cl][Ni][Cl] [NiCl2] |  | 77.7 |
| [Cl][Mn][Cl] [MnCl2] |  | 80.4 |
